{
  "source": "patent US8541216B2",
  "about": "(priority 2009, dated 2013)",
  "system": "beet armyworm eggs",
  "experiment": "beet armyworm egg bioassay of separated, semipurified dunaimycins (96-well artificial diet)",
  "type": "in vivo, beet armyworm (Spodoptera exigua)",
  "method": "The separated, identified dunaimycins were then tested for bioactivity against beet armyworm eggs as follows. Stock solutions were provided as 15% aqueous ethanol solution of various semipurified dunaimycins, either alone or in combinations. For reference purposes, Javelin WDG (Bacillus thuringiensis subspecies Kurstaki; ThermoTrilogy Inc) was weighed out and diluted to give a 1,000 ppm stock solution (positive chemical standard). These stock solutions were transferred to a deep well microtitre plate: 1.4 ml of each stock solutions were placed in the 2 ml well across the top row (A wells 1-12). A Packard Multiprobe II liquid handling system (Perkin Elmer Inc.) then carried out a dilution program, first adding 700 μls of DI H2O to the remaining 84 wells (B-H 1-12). The four tip arm then performed a sequence of aspiration and dispensing steps to mix the samples and then transferred them into an adjoining well to give eight 50% serially diluted samples containing 700 μl per well. The robot then used a transfer program to pipette all of the serial diluted samples to labeled 96 well plates. Aliquots containing 40 μl of each dilution were dispensed into six wells across a microtitre plate containing ˜200 μl of artificial diet/well. […] Mortality was recorded as the number dead over the number treated and expressed as control corrected percent mortality. […]",
  "data": [
    {"compound": "CCC(O)CC1OC2(CCC1C)CC1OC(=O)/C=C\\C(C)C(O)C(C)C(O)CC(O)C(C)CCCCC/C=C/C(CC(C)C)C(=O)CC(O2)C1C", "note": "(centres unmarked) [Dunaimycin A1]", "values": [
      {"measurement": "LD50 (ppm) BAW assay", "setting": "Tested alone", "value": "Inactive up to 1000 ppm"},
      {"measurement": "insecticidal activity (active or inactive dunaimycin)", "setting": "classification of purified species, inactive up to about 1000 ppm", "value": "Inactive"}
    ]}
  ]
}
